We go through 1 compound from patent US9867786B2, “Stabilized compositions containing alkaline labile drugs” (AUXILIUM US HOLDINGS, LLC, priority 2006, dated 2018).

A short description of this data set: Determination of drug stability: testosterone impurities/degradants in hot-melt extruded composition by HPLC. The data set is classed as physicochemical. As for the experimental part:
Testosterone and any other ingredients were added to the wet granulated excipient mixture prepared according to Example 1. The blend was extruded as a monolayer film using a having a barrel temperature of 135° C. The moisture content of the blend prior to extrusion was 3.1%. The HME composition is then analyzed by HPLC according to Example 4 to determine the amount of degradants present.
Twenty doses were sampled from a HME composition at the beginning, middle and end of the extrusion run a formulation. Composites of 10 doses were analyzed in duplicate for impurities by HPLC at each time point. The weight percent for each degradant was determined. Specific degradants analyzed include: 6B-Hydroxy-testosterone, 4-Androsten-16-alpha-ol-3,17-dione, Epi-Testosterone and unidentified degradants. The HPLC method employed will vary according to the drug included in the HME composition. Such methods are found in HPLC in the Pharmaceutical Industry (edited by Godwin W. Fong, Stanley K. Lam, New York: M. Dekker, 1991) or HPLC Methods for Pharmaceutical Analysis (by George Lunn and Norman R. Schmuff. New York: John Wiley & Sons, 1997), the disclosures of which are hereby incorporated by reference.

[1] abbreviates: HME composition extruded at 135 ° C.
[2] abbreviates: HME composition extruded at 145 ° C.
Setting [3] is: HME composition, granulation fluid Aqueous Ethanol.
Setting [4] is: HME composition, granulation fluid Water.

With `C[C@]12CC[C@H]3[C@@H](CCC4=CC(=O)CC[C@@]43C)[C@@H]1CC[C@@H]2O` [testosterone], the “Total Unknown Impurities (%)” value (HME composition (PolyOx, Poloxamer wet granulated with water, Carbopol) extruded at 135 ° C.) is listed as 0.1%; the “Total Unknown Impurities (%)” value (HME composition (PolyOx, Poloxamer wet granulated with water, Carbopol) extruded at 145 ° C.) was determined as 0.4%; the “Total Unknown Impurities (%)” value (HME composition, granulation fluid Aqueous Ethanol (50:50 water/ethanol)) was 0.00-0.75%; the “Total Unknown Impurities (%)” value under setting [4] is 0.50-1.00%. Also, the “4-Androsten-16-alpha-ol-3,17-dione (%)” value by setting is: under setting [1], “ND (ND denotes below the limit of quantitation using the HPLC method detailed herein. In this case, ND means less than 0.1% by wt.)”; under setting [2], “ND (ND denotes below the limit of quantitation using the HPLC method detailed herein. In this case, ND means less than 0.1% by wt.)”; under setting [3], 0.00-0.20%; under setting [4], 0.10-0.50%. For the same compound, the “6B-Hydroxy-testosterone (%)” value is, setting by setting: under setting [1], “ND (ND denotes below the limit of quantitation using the HPLC method detailed herein. In this case, ND means less than 0.1% by wt.)”; under setting [2], 0.15%; under setting [3], 0.00-0.20%; under setting [4], 0.10-0.50%. Moreover, the “Epi-Testosterone (%)” value by setting is: under setting [1], “ND (ND denotes below the limit of quantitation using the HPLC method detailed herein. In this case, ND means less than 0.1% by wt.)”; under setting [2], “ND (ND denotes below the limit of quantitation using the HPLC method detailed herein. In this case, ND means less than 0.1% by wt.)”; under setting [3], 0.00-0.50%; under setting [4], 0.00-0.50%.
